Data as given in patent US20250368648A1, “MULTI-CYCLIC IRAK AND FLT3 INHIBITING COMPOUNDS AND USES THEREOF” (CHILDREN'S HOSPITAL MEDICAL CENTER, priority 2022, published 2025).

What was measured:
FLT3 ITD = target: T1, FLT3 ITD (Homo sapiens, UniProt P36888); test: DiscoverX KINOMEscan competition binding, FLT3 ITD; conditions: no ATP
T1 construct: fused on or other part: DNA tag for qPCR read-out (T7 phage fusion, or DNA-tagged kinase made in HEK-293 cells)
T1 sequence (P36888 1-993): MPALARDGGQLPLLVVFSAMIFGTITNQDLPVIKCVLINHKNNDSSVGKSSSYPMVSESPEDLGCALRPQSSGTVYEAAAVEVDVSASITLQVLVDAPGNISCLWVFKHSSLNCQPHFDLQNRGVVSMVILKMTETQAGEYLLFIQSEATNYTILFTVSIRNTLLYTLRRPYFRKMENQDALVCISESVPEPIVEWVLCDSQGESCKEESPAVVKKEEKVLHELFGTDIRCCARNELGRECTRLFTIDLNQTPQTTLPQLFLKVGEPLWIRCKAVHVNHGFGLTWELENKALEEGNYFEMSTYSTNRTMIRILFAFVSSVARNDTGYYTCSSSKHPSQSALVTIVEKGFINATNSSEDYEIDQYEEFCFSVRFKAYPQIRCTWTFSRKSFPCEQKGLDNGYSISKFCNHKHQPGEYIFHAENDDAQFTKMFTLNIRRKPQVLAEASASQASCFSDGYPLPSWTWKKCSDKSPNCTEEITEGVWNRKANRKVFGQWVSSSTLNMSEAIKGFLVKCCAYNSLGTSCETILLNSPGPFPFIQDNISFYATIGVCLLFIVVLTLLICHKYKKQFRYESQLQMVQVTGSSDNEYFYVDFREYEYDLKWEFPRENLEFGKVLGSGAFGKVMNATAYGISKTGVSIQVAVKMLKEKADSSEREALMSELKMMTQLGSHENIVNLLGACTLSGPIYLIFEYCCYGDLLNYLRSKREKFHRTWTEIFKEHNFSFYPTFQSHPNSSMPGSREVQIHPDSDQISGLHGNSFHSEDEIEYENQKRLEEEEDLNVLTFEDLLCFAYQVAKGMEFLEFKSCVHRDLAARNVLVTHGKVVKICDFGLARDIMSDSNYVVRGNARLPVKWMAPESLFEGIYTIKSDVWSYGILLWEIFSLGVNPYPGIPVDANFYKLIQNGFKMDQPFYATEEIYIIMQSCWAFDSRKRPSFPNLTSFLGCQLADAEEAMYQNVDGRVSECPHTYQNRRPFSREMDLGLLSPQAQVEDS
Description: (§1) Kinase binding data were obtained for various exemplary compounds prepared according to Examples 2-15 using the DiscoverX KINOMEscan® active site-directed competition binding site-directed assay protocol described below. […] As a result, the data report thermodynamic interaction affinities (Kd values), rather than IC50 values that are dependent on ATP concentrations. The assay uses a DNA-tagged version of the protein kinase, and an immobilized ligand bound to a solid support. Compounds that directly or indirectly prevent kinase binding to the immobilized ligand reduce the amount of kinase captured on the solid support, which is detected using an ultra-sensitive qPCR method. Affinity constants reported from the assay have been reported to be independent of the immobilized ligand used that is coupled to the solid support (See supplemental information in Fabian, M. A. et. al., (2005) Nat. […] Wodicka, L. […] Biol. 17, 1241-1249.) Kinase-tagged T7 phage strains were prepared in an E. coli host derived from the BL21 strain. E. coli were grown to log-phase and infected with T7 phage and incubated with shaking at 32° C. until lysis. […] Kds were determined using an 11-point 3-fold compound dilution series with three DMSO control points. […] The kinase concentration in the eluates was measured by qPCR. Binding constants (Kds) were calculated with a standard dose-response curve using the Hill equation. […]

FLT3 N841I = target: T2, FLT3 N841I (Homo sapiens, UniProt P36888, N841I); test: DiscoverX KINOMEscan competition binding, FLT3 N841I; conditions: no ATP
T2 construct: purchased DiscoverX (KINOMEscan); host or cells: E. coli (T7 phage) or HEK-293
T2 sequence (P36888 27-993 N841I): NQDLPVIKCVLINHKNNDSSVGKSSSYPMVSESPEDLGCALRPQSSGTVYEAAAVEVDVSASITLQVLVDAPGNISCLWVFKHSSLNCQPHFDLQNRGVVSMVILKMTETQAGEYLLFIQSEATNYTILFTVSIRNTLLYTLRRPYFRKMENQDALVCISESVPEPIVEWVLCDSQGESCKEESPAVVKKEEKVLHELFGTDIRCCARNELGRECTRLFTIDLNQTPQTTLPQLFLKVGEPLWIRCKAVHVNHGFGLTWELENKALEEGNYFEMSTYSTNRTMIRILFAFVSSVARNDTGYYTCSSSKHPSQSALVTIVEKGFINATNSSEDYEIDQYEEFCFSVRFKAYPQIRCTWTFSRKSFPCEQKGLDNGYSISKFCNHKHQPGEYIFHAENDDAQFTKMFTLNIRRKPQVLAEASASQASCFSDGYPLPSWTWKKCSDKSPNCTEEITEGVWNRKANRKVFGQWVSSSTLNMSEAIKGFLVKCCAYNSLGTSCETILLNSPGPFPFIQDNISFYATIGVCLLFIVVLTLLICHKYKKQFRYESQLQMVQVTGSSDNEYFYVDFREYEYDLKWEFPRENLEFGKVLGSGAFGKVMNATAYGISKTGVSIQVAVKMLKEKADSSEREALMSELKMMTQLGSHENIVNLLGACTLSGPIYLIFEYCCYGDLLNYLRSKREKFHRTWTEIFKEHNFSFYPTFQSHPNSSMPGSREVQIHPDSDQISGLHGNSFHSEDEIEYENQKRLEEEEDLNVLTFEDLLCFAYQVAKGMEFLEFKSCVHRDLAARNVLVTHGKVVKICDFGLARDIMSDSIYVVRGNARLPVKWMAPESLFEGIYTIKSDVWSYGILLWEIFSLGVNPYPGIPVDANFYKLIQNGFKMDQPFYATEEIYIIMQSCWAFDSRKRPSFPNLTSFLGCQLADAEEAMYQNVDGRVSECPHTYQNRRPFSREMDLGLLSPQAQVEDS
Description: as §1

## COc1cc2ncc(-c3nc(N[C@H]4CNCC[C@@H]4F)c(F)cc3F)n2nc1C1CCC1 [Compound 15a, 6-(6-cyclobutyl-7-methoxyimidazo[1,2-b]pyridazin-3-yl)-3,5-difluoro-N-((3S,4S)-4-fluoropiperidin-3-yl)pyridin-2-amine]
FLT3 ITD
  Kd: 0.43 nM
FLT3 N841I
  Kd: 0.25 nM
